Measured values taken from patent publication US7943340B2, “Fungal dipeptidyl peptidase IV (DPPIV) enzyme for reagent use” (priority 2003, dated 2011).
Read-outs that look alike come from different tables or passages of the source. Where a SMILES comes first, the peptide text is derived from it. [ ]: non-standard residue; d: D form. The star is where a group is joined. Sta = CC(C)C[C@H](N)[C@@H](O)CC(=O)O; Isovaleryl = CC(C)CC(=O)*

Columns and labels:
fuLAP1 = fuLAP1 (Aspergillus fumigatus, UniProt Q5VJG6); assay type: biochemical; settings: for fuLAP1 hydrolytic activity, percentage of control without inhibitor / fuLAP1 hydrolytic activity, percentage of control without any cation: Leu-MCA substrate
Chain of fuLAP1 (Q5VJG6 15-388, looked up, natural form): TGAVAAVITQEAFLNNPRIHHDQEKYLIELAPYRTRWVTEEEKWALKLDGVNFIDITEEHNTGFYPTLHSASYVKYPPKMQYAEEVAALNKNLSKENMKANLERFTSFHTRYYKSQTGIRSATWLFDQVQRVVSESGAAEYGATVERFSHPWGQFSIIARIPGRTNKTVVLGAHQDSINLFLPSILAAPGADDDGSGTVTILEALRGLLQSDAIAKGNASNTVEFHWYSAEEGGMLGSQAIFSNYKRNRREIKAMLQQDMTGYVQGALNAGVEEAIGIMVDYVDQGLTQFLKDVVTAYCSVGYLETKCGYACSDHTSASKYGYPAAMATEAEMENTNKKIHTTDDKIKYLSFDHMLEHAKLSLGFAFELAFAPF
Protocol: (§1) Inhibitors and metallic cations were pre-incubated with the enzymes for 15 min at 37° C. Then, Leu-AMC at a 5 mM final concentration was added. After further incubation for 60 min, enzyme activity was measured as described above. The inhibitors and their concentrations tested purified LAPs were: 500 μM amastatin (Bachem), 40 μM benzamidine (Sigma), 500 μM bestatin (Bachem), 5 mM/l mM EDTA (Sigma). 100 μM E-64 (L-trans-epoxysuccinyl-leu-4-guanidinobutylamide) (Bachem), 100 μM leupeptin (Sigma), 5 mM/1 mM ortho-phenanthroline (Sigma), 500 μM p-chloromercuribenzoic acid (Sigma), 100 μM pepstatin A (Sigma), 40 μM PMSF (Sigma), 20 μM TLCK (Roche Diagnostics), and 20 μM TPCK (Roche Diagnostics).

ruLAP1 = ruLAP1 (Trichophyton rubrum, UniProt Q5QHG5); assay type: biochemical; settings: for ruLAP1 hydrolytic activity, percentage of control without inhibitor / ruLAP1 hydrolytic activity, percentage of control without any cation: Leu-MCA substrate; for effect of inhibitor on ruLAP1 activity: Leu-AMC 5 mM, inhibitor concentrations, pepstatin 0.1 mM
Chain of ruLAP1 (Q5QHG5 19-373): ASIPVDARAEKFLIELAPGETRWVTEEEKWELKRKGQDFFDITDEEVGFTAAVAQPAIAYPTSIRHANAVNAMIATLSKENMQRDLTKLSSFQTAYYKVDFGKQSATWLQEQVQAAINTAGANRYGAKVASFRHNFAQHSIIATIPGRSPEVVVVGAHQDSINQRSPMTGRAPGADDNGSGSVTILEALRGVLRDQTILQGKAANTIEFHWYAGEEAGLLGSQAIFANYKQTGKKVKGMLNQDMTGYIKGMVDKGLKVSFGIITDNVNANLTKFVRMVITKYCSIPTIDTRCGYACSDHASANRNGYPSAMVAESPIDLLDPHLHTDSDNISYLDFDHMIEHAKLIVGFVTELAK
Protocol: as §1

ruLAP2 = ruLAP2 (Trichophyton rubrum, UniProt Q5QHG6); assay type: biochemical; settings: for ruLAP2 hydrolytic activity, percentage of control without inhibitor / ruLAP2 hydrolytic activity, percentage of control without any cation: Leu-MCA substrate; for effect of inhibitor on ruLAP2 activity: Leu-AMC 5 mM, inhibitor concentrations
Chain of ruLAP2 (Q5QHG6 22-495): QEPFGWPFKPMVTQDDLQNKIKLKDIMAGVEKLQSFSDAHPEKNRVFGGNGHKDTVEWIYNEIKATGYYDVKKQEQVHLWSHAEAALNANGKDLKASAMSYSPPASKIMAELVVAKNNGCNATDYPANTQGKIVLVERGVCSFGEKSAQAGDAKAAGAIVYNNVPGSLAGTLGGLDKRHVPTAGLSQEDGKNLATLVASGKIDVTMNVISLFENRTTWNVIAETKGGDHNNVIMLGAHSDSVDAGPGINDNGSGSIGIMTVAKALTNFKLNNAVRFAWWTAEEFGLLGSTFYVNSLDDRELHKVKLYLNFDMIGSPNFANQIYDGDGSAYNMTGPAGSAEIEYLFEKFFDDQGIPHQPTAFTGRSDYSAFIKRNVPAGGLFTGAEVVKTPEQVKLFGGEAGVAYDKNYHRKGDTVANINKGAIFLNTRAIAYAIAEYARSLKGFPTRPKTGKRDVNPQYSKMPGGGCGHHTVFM
Protocol: as §1

[1] = biological target: T1, pkLAP (microsomal LAP from porcine kidney) (Sus scrofa, UniProt P15145); assay: Effect of chemical reagents (inhibitors, metallic cations) on LAP activity with Leu-AMC; assay type: biochemical; settings: for pkLAP hydrolytic activity, percentage of control without inhibitor / pkLAP hydrolytic activity, percentage of control without any cation: Leu-MCA substrate; for effect of divalent cation on pkLAP activity: Leu-AMC substrate
T1 construct: purchased Sigma; host or cells: porcine kidney
T1 sequence (P15145 1-963): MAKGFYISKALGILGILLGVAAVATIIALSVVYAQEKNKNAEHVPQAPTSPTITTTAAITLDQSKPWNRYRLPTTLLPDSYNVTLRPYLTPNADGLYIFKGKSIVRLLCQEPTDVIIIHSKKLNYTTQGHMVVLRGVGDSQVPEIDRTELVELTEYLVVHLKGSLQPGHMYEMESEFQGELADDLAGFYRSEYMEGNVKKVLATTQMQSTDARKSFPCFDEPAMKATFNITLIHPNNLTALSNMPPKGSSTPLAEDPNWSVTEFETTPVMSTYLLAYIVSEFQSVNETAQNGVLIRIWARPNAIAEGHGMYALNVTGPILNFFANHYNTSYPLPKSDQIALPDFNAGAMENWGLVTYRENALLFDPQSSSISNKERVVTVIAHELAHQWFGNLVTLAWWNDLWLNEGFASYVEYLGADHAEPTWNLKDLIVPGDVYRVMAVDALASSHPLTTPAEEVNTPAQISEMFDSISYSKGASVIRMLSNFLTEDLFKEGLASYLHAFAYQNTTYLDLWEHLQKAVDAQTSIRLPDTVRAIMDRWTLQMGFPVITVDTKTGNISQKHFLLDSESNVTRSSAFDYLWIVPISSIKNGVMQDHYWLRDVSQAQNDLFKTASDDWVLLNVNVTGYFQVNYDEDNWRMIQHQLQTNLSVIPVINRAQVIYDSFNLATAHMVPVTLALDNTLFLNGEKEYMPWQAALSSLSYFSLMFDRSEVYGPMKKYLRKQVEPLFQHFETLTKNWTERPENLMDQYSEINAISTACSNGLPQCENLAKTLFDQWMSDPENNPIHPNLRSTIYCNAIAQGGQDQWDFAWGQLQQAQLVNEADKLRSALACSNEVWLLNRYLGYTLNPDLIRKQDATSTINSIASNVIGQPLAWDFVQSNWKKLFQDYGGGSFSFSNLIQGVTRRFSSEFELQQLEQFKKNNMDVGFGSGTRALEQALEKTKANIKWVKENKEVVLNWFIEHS
Protocol: as §1

fuLAP2 = assay type: biochemical, Aspergillus fumigatus; settings: Leu-MCA substrate
Protocol: as §1

Structure (SMILES)	fuLAP1 hydrolytic activity, percentage of control without any cation (fuLAP1; cation salt 0.5 mM)	fuLAP1 hydrolytic activity, percentage of control without any cation (fuLAP1; cation salt 1 mM)	ruLAP1 hydrolytic activity, percentage of control without any cation (ruLAP1; cation salt 0.5 mM)	ruLAP1 hydrolytic activity, percentage of control without any cation (ruLAP1; cation salt 1 mM)	ruLAP2 hydrolytic activity, percentage of control without any cation (ruLAP2; cation salt 0.5 mM)	ruLAP2 hydrolytic activity, percentage of control without any cation (ruLAP2; cation salt 1 mM)	pkLAP hydrolytic activity, percentage of control without any cation ([1]; cation salt 0.5 mM)	pkLAP hydrolytic activity, percentage of control without any cation ([1]; cation salt 1 mM)	fuLAP2 hydrolytic activity, percentage of control without any cation (fuLAP2; cation salt 0.5 mM)	fuLAP2 hydrolytic activity, percentage of control without any cation (fuLAP2; cation salt 1 mM)	effect of divalent cation on pkLAP activity [1]	effect of inhibitor on ruLAP2 activity (ruLAP2)	further results
c1cnc2c(c1)ccc1cccnc12 [orthophenanthroline]													fuLAP1 hydrolytic activity, percentage of control without inhibitor (fuLAP1; inhibitor 1 mM): 0%; fuLAP1 hydrolytic activity, percentage of control without inhibitor (fuLAP1; inhibitor 5 mM): 0%; ruLAP1 hydrolytic activity, percentage of control without inhibitor (ruLAP1; inhibitor 1 mM): 0%; ruLAP1 hydrolytic activity, percentage of control without inhibitor (ruLAP1; inhibitor 5 mM): 0%; ruLAP2 hydrolytic activity, percentage of control without inhibitor (ruLAP2; inhibitor 1 mM): 0%; ruLAP2 hydrolytic activity, percentage of control without inhibitor (ruLAP2; inhibitor 5 mM): 0%; pkLAP hydrolytic activity, percentage of control without inhibitor ([1]; inhibitor 1 mM): 0%; pkLAP hydrolytic activity, percentage of control without inhibitor ([1]; inhibitor 5 mM): 0%; fuLAP2 hydrolytic activity, percentage of control without inhibitor (fuLAP2; inhibitor 1 mM): 0%; fuLAP2 hydrolytic activity, percentage of control without inhibitor (fuLAP2; inhibitor 5 mM): 0%
[Cl-].[Cl-].[Mg+2] [MgCl2]	68.5%	72.6%	129.9%	132.6%	121.2%	110.2%	130.1%	146.1%	97.6%	108.0%			
[Cl][Ni][Cl] [Ni, NiCl2]	51.7%	37.2%	74.8%	58.1%	130.5%	147.9%	1187.7%	1158.7%	98.4%	149.3%	highly activated		
O=C(O)c1cc[c]([Hg][Cl])cc1 [p-chloromercuribenzoate, p-chloromercuribenzoic acid]												blunted the activity	fuLAP1 hydrolytic activity, percentage of control without inhibitor (fuLAP1; inhibitor 500 μM): 90%; ruLAP1 hydrolytic activity, percentage of control without inhibitor (ruLAP1; inhibitor 500 μM): 32%; ruLAP2 hydrolytic activity, percentage of control without inhibitor (ruLAP2; inhibitor 500 μM): 21%; pkLAP hydrolytic activity, percentage of control without inhibitor ([1]; inhibitor 500 μM): 59%; fuLAP2 hydrolytic activity, percentage of control without inhibitor (fuLAP2; inhibitor 500 μM): 96%
[Cl][Cu][Cl] [Cu^++, CuCl2]	25.8%	17.0%			50.9%	34.7%	1422.0%	1092.4%	68.9%	73.6%	highly activated		
O=C(O)CN(CCN(CC(=O)O)CC(=O)O)CC(=O)O [EDTA]												more sensitive	effect of inhibitor on ruLAP1 activity (ruLAP1): more sensitive
CC(C)C[C@H](NC(=O)[C@H]1O[C@@H]1C(=O)O)C(=O)NCCCCN=C(N)N (relative stereo) [E64, L-trans-epoxysuccinyl-leu-4-guanidinobutylamide]												blunted the activity	
[Cl-].[Cl-].[Zn+2] [Zn, ZnCl2]	60.7%	53.2%	43.0%	68.9%	77.9%	88.9%	437.6%	297.9%	51.4%	119.5%	highly activated		
CC(C)CC(=O)N[C@H](C(=O)N[C@H](C(=O)N[C@@H](CC(C)C)[C@@H](O)CC(=O)N[C@@H](C)C(=O)N[C@@H](CC(C)C)[C@@H](O)CC(=O)O)C(C)C)C(C)C [pepstatin, pepstatin A] (Isovaleryl-VV[Sta]A[Sta]-OH)													effect of inhibitor on fuLAP1 activity (fuLAP1; Leu-AMC 5 mM, inhibitor concentrations, pepstatin 0.1 mM): some sensitivity; effect of inhibitor on ruLAP1 activity (ruLAP1): some sensitivity; fuLAP2 hydrolytic activity, percentage of control without inhibitor (fuLAP2; inhibitor 100 μM): 73%
